Measurements from patent publication US20220331247A1, “Polymeric micelle, methods of production and uses thereof” (Association for the Advancement of Tissue Engineering and …, priority 2019, published 2022).

How the values were obtained:
IL-6 = IL-6 quantified in the medium, co-culture system; type: cell-based, human; conditions: untreated maximum about 1.2 μg/mL
Experimental: (§1) In an embodiment, the biological effects of dexamethasone (Dex) in monocultures and co-culture of hACs and THP-1 were analysed. To compare the biological effects of free Dex and the polymeric micelles encapsulating Dex, monoculture and co-culture systems of hACs and stimulated M1 macrophages were used. Three different conditions were tested: (i) no treatment (Ctr), (ii) treatment with micelles encapsulating Dex (Mic+Dex), and (iii) treatment with free Dex (Dex). The concentration of Dex was […], and in the co-culture system, 50 mU of GR was added.
TNF-α and IL-6 cytokines (FIGS. 5C and D, respectively) were quantified in the medium. […] This may be explained due to the controlled release of Dex from the polymeric micelles over the time. With regard to IL-6, the establishment of the co-culture system increased IL-6 amount to a maximum of about 1.2 μg/mL. In this case, both the polymeric micelles with encapsulated Dex and free Dex were able to effectively reduce the amount of IL-6 in the medium to about 0.1 μg/mL.
(§2) The samples were analyzed for (i) cell viability, (ii) cell proliferation, (C) TNF-α concentration, and (D) IL-6 concentration. The alphabet “a” denotes significant difference compared to the hACs Ctr, “b” denotes significant difference compared to the THP-1 Ctr, and “c” denotes significant difference as compared to the co-culture Ctr where p<0.01.

[1] = tested on: hACs cultured in monolayer; assay: Biological effects of Dex treatments in hACs monoculture; type: cell-based, human; conditions: Dex 100 WI
Experimental: as §1, §2

C[C@@H]1C[C@H]2[C@@H]3CCC4=CC(=O)C=C[C@]4(C)[C@@]3(F)[C@@H](O)C[C@]2(C)[C@@]1(O)C(=O)CO [Dex, dexamethasone]
amount of IL-6 in the medium after treatment (IL-6): about 0.1 μg/mL | hACs' viability and proliferation vs Ctr [1]: significantly reduced
